From US20250059187A1, “COVALENTLY BINDING INHIBITORS OF G12S, G12D AND/OR G12E MUTANTS OF K-RAS GTPASE” (The Regents of the University of California, priority 2021, published 2025) come the findings set out here.

Molecules are shown by their SMILES.

For assay [1], the target named is T1, K-Ras G12D (Homo sapiens, UniProt P01116, G12D).
T1 construct: human K-Ras (G12D, aa 1-169); 6xHis tag + TEV cleavage site (N, cleaved yes); made in house; host or cells: E. coli BL21(DE3)
Kind of assay: Differential scanning fluorimetry of K-Ras(G12D) and its covalent adducts. In kind it is binding. As to the method:
The protein of interest was diluted with SEC Buffer [20 mM HEPES 7.5, 150 mM NaCl, 1 mM MgCl2] to 8 μM. This solution was dispensed into wells of a white 96-well PCR plate in triplicate (25 μL/well). Fluorescence was measured at 0.5-° C. temperature intervals every 30 s from 25° C. to 95° C. on a Bio-Rad CFX96 qPCR system using the FRET setting. Each data set was normalized to the highest fluorescence and the normalized fluorescence reading was plotted against temperature in GraphPad Prism 8.0. Tm values were determined as the temperature(s) corresponding to the maximum(ma) of the first derivative of the curve.

A further assay concerns the target T2, wild type K-Ras (Homo sapiens, UniProt P01116).
T2 construct: human K-Ras (wildtype, aa 1-169); 6xHis tag + TEV cleavage site (N, cleaved yes); made in house; host or cells: E. coli BL21(DE3)
Kind of assay: Covalent modification of recombinant wild-type K-Ras by whole-protein mass spectrometry. Type of assay: binding. As to conditions: 10 μM, 23° C., after 1 h.

In assay [2] the target is T3, interaction between Raf-RBD and K-Ras(G12D) (Homo sapiens, UniProt P01116, G12D).
T3 construct: human K-Ras (G12D, aa 1-169); 6xHis tag + TEV cleavage site (N); made in house; host or cells: E. coli BL21(DE3) for K-Ras
Put plainly: Time-resolved fluorescence energy transfer assay, Raf-RBD and K-Ras(G12D). Type of assay: biochemical. As to conditions: dose-dependent.

Assay [3] deals with T1, K-Ras G12D. Put plainly: Covalent modification of recombinant K-Ras(G12D) by whole-protein mass spectrometry. Type of assay: binding. As to conditions: 10 μM, 23° C. As to the method:
(§1) Test compounds were prepared as 100× stock solutions in DMSO. K-Ras proteins were diluted with SEC Buffer (20 mM HEPES 7.5, 150 mM NaCl, 1 mM MgCl2) to 400 nM or 1 μM. In a typical reaction, 0.5 μL 100× compound stock was mixed with 50 μL diluted K-Ras protein, and the resulting mixture was incubated for the desired amount of time. The extent of modification was assessed by electrospray mass spectrometry using a Waters Xevo G2-XS system equipped with an Acquity UPLC BEH C4 1.7 μm column. The mobile phase was a linear gradient of 5-95% acetonitrile/water+0.05% formic acid. For kinetic measurements, a 2× compound solution was first prepared in SEC Buffer, which was then mixed with 400 nM K-Ras(G12D) protein at 1:1 (v/v) ratio. Injection time stamps were used to calculate elapsed time.

The target of assay [4] is T4, interaction between Raf-RBD and wildtype K-Ras (Homo sapiens, UniProt P01116).
T4 construct: human K-Ras (wildtype, aa 1-169); 6xHis tag + TEV cleavage site (N); made in house; host or cells: E. coli BL21(DE3) for K-Ras
Put plainly: Time-resolved fluorescence energy transfer assay, Raf-RBD and wildtype K-Ras. In kind it is biochemical.

Assay [5] deals with KRAS G12D mutation cancer cell lines. Kind of assay: Growth inhibition of KRAS G12D cancer cell lines. In kind it is cell-based. As to the method:
Cells were seeded into 96-well white flat bottom plates (1,000 cells/well) (Corning) and incubated overnight. Cells were treated with the indicated compounds in a nine-point threefold dilution series (100 μL final volume) and incubated for 72 h. Cell viability was assessed using a commercial CellTiter-Glo (CTG) luminescence-based assay (Promega). Briefly, the 96-well plates were equilibrated to room temperature before the addition of diluted CTG reagent […] (1:4 CTG reagent:PBS). Plates were placed on an orbital shaker for 30 min before recording luminescence using a Spark 20M (Tecan) plate reader.

The next assay deals with T5, K-Ras(G13D) (Homo sapiens, UniProt P01116, G13D).
T5 construct: human K-Ras (G13D, aa 1-169); 6xHis tag + TEV cleavage site (N, cleaved yes); made in house; host or cells: E. coli BL21(DE3)
Put plainly: Covalent modification of recombinant K-Ras(G13D) by whole-protein mass spectrometry. Type of assay: binding. The following applies: 10 μM, 23° C., after 1 h. As to the method:
as §1

Assay [6] has as its target T1, K-Ras G12D. Kind of assay: Stability of the adduct between K-Ras(G12D) and the compound.
In the next assay the target is T6, K-Ras G12E (Homo sapiens, UniProt P01116, G12E).
T6 construct: human K-Ras (G12E, aa 1-169); 6xHis tag + TEV cleavage site (N, cleaved yes); made in house; host or cells: E. coli BL21(DE3)
Kind of assay: Covalent modification of recombinant K-Ras(G12E) by whole-protein mass spectrometry. As to conditions: 10 μM, 23° C. Type of assay: binding. Here is the method:
as §1

For the next assay, the target named is K-Ras(G12S) (Homo sapiens, UniProt P01116, G12S). Kind of assay: Covalent modification of recombinant K-Ras(G12S) by whole-protein mass spectrometry. In kind it is binding. More on the design: human K-Ras (G12S, aa 1-169); 6xHis tag + TEV cleavage site (N, cleaved yes); made in house; host or cells: E. coli BL21(DE3). The following applies: 10 μM compound, 23° C. An outline of the steps:
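Recombinant K-Ras diluted to 400 nM or 1 μM in 20 mM HEPES pH 7.5, 150 mM NaCl, 1 mM MgCl2 and incubated with compound added from 100× DMSO stock. Modification extent measured by electrospray whole-protein mass spectrometry; kinetics used 1:1 mixing with 400 nM protein and injection time stamps for elapsed time.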

Assay [7] deals with T7, Raf-RBD / K-Ras(G12D)·GppNHp (Homo sapiens, UniProt P01116, G12D).
T7 construct: human K-Ras (G12D, aa 1-169); 6xHis tag + TEV cleavage site (N); made in house; host or cells: E. coli BL21(DE3) for K-Ras
Put plainly: Biolayer interferometry, Raf-RBD binding of the K-Ras(G12D)·GppNHp adduct. The following applies: compared to unmodified K-Ras(G12D)·GppNHp. For orientation: In BLI a coated tip is dipped into the sample, and binding shifts an interference pattern.

As for `C#Cc1cccc2cccc(-c3ncc4c(N5C[C@H]6CC[C@@H](C5)N6C(=O)C5CC(=O)O5)nc(OCC56CCCN5CCC6)nc4c3F)c12` (mixture of isomers) [Compound 1], the “ΔTm of K-Ras(G12D)·GDP on covalent modification” value at K-Ras G12D [1] (GDP state) is “+10.3 °C”. The “ΔTm of K-Ras(G12D)·GppNHp on covalent modification” value on K-Ras G12D [1] (GppNHp state) was “+2.5 °C”. At wild type K-Ras, the “modification of K-Ras(wildtype)·GDP” value is reported as “no detectable modification”. Further, the “interaction between Raf-RBD and K-Ras(G12D)” value in assay [2] is “inhibited the interaction between Raf-RBD and K-Ras(G12D)”. At K-Ras G12D [3], the “activity against GppNHp-bound K-Ras(G12D)” value was “also active against the GppNHp-bound K-Ras(G12D)” and the “time to full modification of K-Ras(G12D)·GDP” value is reported as “less than 15 minutes”. Besides, in assay [4], the “interaction between Raf-RBD and wildtype K-Ras” value is reported as “not wildtype K-Ras”. Besides, the “growth of KRAS G12D cancer cell lines” value in assay [5] is listed as “inhibited growth of KRAS^G12D cancer cell lines”. The “modification of K-Ras(G13D)·GDP” value at K-Ras(G13D) is 6.5±0.3%. In addition, the “stability of the K-Ras(G12D) adduct over pH” value at K-Ras G12D [6] is reported as “stable over a range of pH (5.0-8.5)”. The “stability of the K-Ras(G12D) adduct with DTT” value at K-Ras G12D [6] (1 mM DTT, 23° C.) is recorded as “did not degrade in the presence of 1 mM DTT”. Further, the “reactivity with K-Ras(G12E)·GDP” value at K-Ras G12E is “markedly reduced reactivity”. The “covalent reaction with K-Ras(G12S)·GDP” value at K-Ras(G12S) is “did not react with K-Ras(G12S)·GDP”. Also, the “binding of the K-Ras(G12D)·GppNHp adduct to Raf-RBD” value in assay [7] is “substantially decreased binding to Raf-RBD”.
